Consider 26 compounds from patent publication US9271969B2, “Compounds as inhibitors of diacylglycerol O-acyltransferase type 1 enzyme” (KAINOS MEDICINE, INC., priority 2012, dated 2016).

One assay has as its target mouse DGAT1 (Mus musculus (Mouse), UniProt Q9Z2A7). Put plainly: Radiometric DGAT1 assay, mouse liver microsomes. Type of assay: biochemical. The settings on record: mouse liver microsomes having mouse DGAT1 activity. An excerpt: (§1) A second source of DGAT1 activity was human or mouse liver microsomes.
(In general: Microsomes from liver hold many membrane-bound enzymes, among them those of drug oxidation.)

Assay [1] addresses T1, human DGAT1 (Homo sapiens (Human), UniProt O75907). The assay is described as follows: biochemical.
Description: For this assay, a source of DGAT1 was needed. In that regard, a commercially available plasmid for expression of DGAT1 (e.g., pCMV6-recombinant human DGAT1 plasmid) was transfected for 24 hours in Hep3B cells. After transfection of the plasmid, human DGAT-1 expression was analyzed by Western blot or RT-PCR using whole cell extracts. […] Human and mouse DGAT activity were determined as follows.
The plates were sealed, incubated overnight and counted the next morning on a liquid scintillation counter and luminometer.
DGAT1 catalyzes the transfer of the radiolabelled decanoyl group onto the sn-3 position of didecanoyl glycerol. The resultant radiolabeled tridecanoyl glycerol (tricaprin) preferentially binds to the hydrophobic coating on the phospholipid-coated radiometric assay plate. The proximity of the radiolabeled product to the solid scintillant incorporated into the bottom of the radiometric assay plate induced for release from the scintillant, which was measured in the liquid scintillation counter and luminometer.
IC50 values of the compounds were determined from concentration-dependent inhibition curves by using commercially available software.
The target in assay [2] is T1, human DGAT1. Put plainly: Radiometric DGAT1 assay, human liver microsomes. The settings on record: Source of human DGAT activity B = human liver microsomes. The class given is biochemical.
From the text: as §1

mouse DGAT1, sequence (Q9Z2A7 whole entry): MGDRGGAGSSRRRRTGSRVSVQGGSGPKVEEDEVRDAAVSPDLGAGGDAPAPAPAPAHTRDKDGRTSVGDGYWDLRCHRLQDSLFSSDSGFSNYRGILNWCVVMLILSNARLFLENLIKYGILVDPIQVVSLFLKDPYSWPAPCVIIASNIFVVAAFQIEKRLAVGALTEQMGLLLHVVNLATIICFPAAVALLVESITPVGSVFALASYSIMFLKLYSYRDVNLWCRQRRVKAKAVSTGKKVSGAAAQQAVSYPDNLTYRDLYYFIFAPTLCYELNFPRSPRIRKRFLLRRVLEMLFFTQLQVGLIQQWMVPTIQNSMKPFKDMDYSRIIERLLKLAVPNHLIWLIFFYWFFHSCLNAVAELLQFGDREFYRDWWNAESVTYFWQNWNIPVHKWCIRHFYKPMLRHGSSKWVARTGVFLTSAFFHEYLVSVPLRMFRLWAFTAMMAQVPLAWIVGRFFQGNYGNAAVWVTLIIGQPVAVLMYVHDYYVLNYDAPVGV
T1 sequence (O75907 whole entry): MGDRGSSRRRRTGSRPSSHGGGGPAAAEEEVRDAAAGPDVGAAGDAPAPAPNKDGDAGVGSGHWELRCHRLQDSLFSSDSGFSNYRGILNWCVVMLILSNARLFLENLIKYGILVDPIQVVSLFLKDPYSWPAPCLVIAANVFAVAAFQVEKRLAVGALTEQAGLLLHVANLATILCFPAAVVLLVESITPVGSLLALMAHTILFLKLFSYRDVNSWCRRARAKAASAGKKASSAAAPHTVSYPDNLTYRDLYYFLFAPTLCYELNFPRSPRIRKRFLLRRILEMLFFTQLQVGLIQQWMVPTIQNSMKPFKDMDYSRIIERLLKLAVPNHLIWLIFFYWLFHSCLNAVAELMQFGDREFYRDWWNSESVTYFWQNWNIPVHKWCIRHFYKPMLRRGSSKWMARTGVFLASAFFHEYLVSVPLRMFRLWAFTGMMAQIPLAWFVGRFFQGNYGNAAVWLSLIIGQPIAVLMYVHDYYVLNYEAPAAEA

With `O=C(O)C[C@H]1CC[C@H](c2ccc(-c3ccc4nc(C(=O)NCc5ccc(OC(F)(F)F)cc5)cn4c3)cc2)CC1` [Compound 1, 2-((1r,4r)-4-(4-(2-((4-(Trifluoromethoxy)benzyl)carbamoyl)imidazo[1,2-a]pyridin-6-yl)phenyl)cyclohexyl)acetic acid], the 50% inhibitory concentration (IC50) against mouse DGAT1 is under 50 nM; against human DGAT1 [1], under 10 nM.

With `O=C(O)C[C@H]1CC[C@H](c2ccc(-c3ccc4nc(C(=O)Nc5ccc(C(F)(F)F)cc5)cn4c3)cc2)CC1` [Compound 2, 2-((1r,4r)-4-(4-(2-((4-(Trifluoromethyl)phenyl)carbamoyl)imidazo[1,2-a]pyridin-6-yl)phenyl)-cyclohexyl)acetic acid], the IC50 at mouse DGAT1 was under 200 nM; against human DGAT1 [1] it was under 10 nM.

For the compound `O=C(O)C[C@H]1CC[C@H](c2ccc(-c3ccc4nc(C(=O)Nc5ccc(OC(F)(F)F)cc5)cn4c3)cc2)CC1` [Compound 3, 2-((1r,4r)-4-(4-(2-((4-(Trifluoromethoxy)phenyl)carbamoyl)imidazo[1,2-a]pyridin-6-yl)-phenyl)cyclohexyl)acetic acid], the values for the IC50 on mouse DGAT1 and against human DGAT1 [1] were under 75 nM and under 10 nM, respectively.

As to `O=C(O)C[C@H]1CC[C@H](c2ccc(-c3ccc4nc(C(=O)NCc5ccc(C(F)(F)F)cc5)cn4c3)cc2)CC1` [Compound 4, 2-((1r,4r)-4-(4-(2-((4-(Trifluoromethyl)benzyl)carbamoyl)imidazo[1,2-a]pyridin-6-yl)-phenyl)cyclohexyl)acetic acid], the half-inhibitory concentration (IC50) at mouse DGAT1 was under 75 nM; against human DGAT1 [2] it was under 150 nM.

As to `O=C(O)C[C@H]1CC[C@H](c2ccc(-c3ccc4nc(C(=O)Nc5cccc(OC(F)(F)F)c5)cn4c3)cc2)CC1` [Compound 5, 2-((1r,4r)-4-(4-(2-((3-(Trifluoromethoxy)phenyl)carbamoyl)imidazo[1,2-a]pyridin-6-yl)-phenyl)cyclohexyl)acetic acid], the concentration for half-maximal inhibition (IC50) on mouse DGAT1 is under 125 nM; on human DGAT1 [2], under 100 nM.

`O=C(O)C[C@H]1CC[C@H](c2ccc(-c3ccc4nc(C(=O)Nc5cccc(C(F)(F)F)c5)cn4c3)cc2)CC1` [Compound 6, 2-((1r,4r)-4-(4-(2-((3-(Trifluoromethyl)phenyl)carbamoyl)imidazo[1,2-a]pyridin-6-yl)-phenyl)cyclohexyl)acetic acid]: the figures for the IC50 at mouse DGAT1 and on human DGAT1 [2] were under 150 nM and under 75 nM, respectively.

In the case of `O=C(O)C[C@H]1CC[C@H](c2ccc(-c3ccc4nc(C(=O)NCc5cccc(OC(F)(F)F)c5)cn4c3)cc2)CC1` [Compound 7, 2-((1r,4r)-4-(4-(2-((3-(Trifluoromethoxy)benzyl)carbamoyl)imidazo[1,2-a]pyridin-6-yl)-phenyl)cyclohexyl)acetic acid], the half-inhibitory concentration (IC50) on mouse DGAT1 was under 100 nM; on human DGAT1 [2], under 175 nM.

On to `CC(C)(C)c1ccc(CNC(=O)c2cn3cc(-c4ccc([C@H]5CC[C@H](CC(=O)O)CC5)cc4)ccc3n2)cc1` [Compound 8, 2-((1r,4r)-4-(4-(2-((4-(tert-Butyl)benzyl)carbamoyl)imidazo[1,2-a]pyridin-6-yl)phenyl)-cyclohexyl)acetic acid], for which the IC50 against mouse DGAT1 was under 50 nM; against human DGAT1 [2], under 125 nM.

In the case of `COc1ccc(CNC(=O)c2cn3cc(-c4ccc([C@H]5CC[C@H](CC(=O)O)CC5)cc4)ccc3n2)cc1OC` [Compound 23, 2-((1r,4r)-4-(4-(2-((3,4-Dimethoxybenzyl)carbamoyl)imidazo[1,2-a]pyridin-6-yl)phenyl)-cyclohexyl)acetic acid], the IC50 at mouse DGAT1 and against human DGAT1 [2] was under 25 nM in each case.

For the compound `O=C(O)C[C@H]1CC[C@H](c2ccc(-c3ccc4nc(C(=O)NCc5ccccc5)cn4c3)cc2)CC1` [Compound 31, 2-((1r,4r)-4-(4-(2-(Benzylcarbamoyl)imidazo[1,2-a]pyridin-6-yl)phenyl)cyclohexyl)acetic acid], the IC50 against mouse DGAT1 was under 100 nM; against human DGAT1 [2], under 50 nM.

On to `COc1ccccc1CNC(=O)c1cn2cc(-c3ccc([C@H]4CC[C@H](CC(=O)O)CC4)cc3)ccc2n1` [Compound 41, 2-((1r,4r)-4-(4-(2-((2-Methoxybenzyl)carbamoyl)imidazo[1,2-a]pyridin-6-yl)phenyl)cyclohexyl)acetic acid], for which the IC50 against mouse DGAT1 is under 75 nM; against human DGAT1 [2] it was under 25 nM.

With `O=C(O)CC1CCC(c2ccc(-c3ccc4nc(C(=O)NCc5c(F)cc(Cl)cc5F)cn4c3)cc2)CC1` (stereo not shown) [Compound 42, 2-((1s,4s)-4-(4-(2-((4-chloro-2,6-difluorobenzyl)carbamoyl)imidazo[1,2-a]pyridin-6-yl)phenyl)cyclohexyl)acetic acid], the concentration for half-maximal inhibition (IC50) at mouse DGAT1 and at human DGAT1 [2] was under 10 nM each time.

`Cc1cc(Cl)cc(Cl)c1CNC(=O)c1cn2cc(-c3ccc(C4CCC(CC(=O)O)CC4)cc3)ccc2n1` (stereo not shown) [Compound 43, 2-((1s,4s)-4-(4-(2-((2,4-Dichloro-6-methylbenzyl)carbamoyl)imidazo[1,2-a]pyridin-6-yl)phenyl)cyclohexyl)acetic acid]: the IC50 against mouse DGAT1 and on human DGAT1 [2] was under 10 nM in each case.

Regarding `Cc1cc(C)c(CNC(=O)c2cn3cc(-c4ccc(C5CCC(CC(=O)O)CC5)cc4)ccc3n2)c(C)c1` (stereo not shown) [Compound 44, 2-((1s,4s)-4-(4-(2-((2,4,6-Trimethylbenzyl)carbamoyl)imidazo[1,2-a]pyridin-6-yl)phenyl)cyclohexyl)acetic acid], the IC50 at mouse DGAT1 is under 10 nM; on human DGAT1 [2], under 25 nM.

With `Cc1ccc(CNC(=O)c2nc3ccc(-c4ccc(C5CCC(CC(=O)O)CC5)cc4)cn3n2)cc1` (stereo not shown) [Compound 45, 2-((1s,4s)-4-(4-(2-((4-Methylbenzyl)carbamoyl)-[1,2,4]triazolo[1,5-a]pyridin-6-yl)phenyl)cyclohexyl)acetic acid], the IC50 on mouse DGAT1 and against human DGAT1 [2] was under 50 nM in each case.

As for `CC(C)(C)c1ccc(CNC(=O)c2cn3cc(-c4ccc([C@H]5CC[C@H](CC(=O)O)CC5)cc4)sc3n2)cc1` [Compound 46, 2-((1r,4r)-4-(4-(6-((4-(tert-Butyl)benzyl)carbamoyl)imidazo[2,1-b]thiazol-2-yl)phenyl)-cyclohexyl)acetic acid], the 50% inhibitory concentration (IC50) against mouse DGAT1 is under 50 nM; at human DGAT1 [2], under 1 nM.

Regarding `O=C(O)C[C@H]1CC[C@H](c2ccc(-c3cn4cc(C(=O)NCc5cccc(OC(F)(F)F)c5)nc4s3)cc2)CC1` [Compound 50, 2-((1r,4r)-4-(4-(6-((3-(Trifluoromethoxy)benzyl)carbamoyl)imidazo[2,1-b]thiazol-2-yl)-phenyl)cyclohexyl)acetic acid], the 50% inhibitory concentration (IC50) against mouse DGAT1 was under 25 nM; at human DGAT1 [2], under 50 nM.

As for `O=C(O)C[C@H]1CC[C@H](c2ccc(-c3cn4cc(C(=O)NCc5cc(OC(F)(F)F)ccc5F)nc4s3)cc2)CC1` [Compound 51, 2-((1r,4r)-4-(4-(6-((2-Fluoro-5-(trifluoromethoxy)benzyl)carbamoyl)imidazo[2,1-b]thiazol-2-yl)phenyl)cyclohexyl)acetic acid], the IC50 at mouse DGAT1 and at human DGAT1 [2] was under 50 nM in each case.

Consider `O=C(O)C[C@H]1CC[C@H](c2ccc(-c3cn4cc(C(=O)Nc5cccc(OC(F)(F)F)c5)nc4s3)cc2)CC1` [Compound 52, 2-((1r,4r)-4-(4-(6-((3-(Trifluoromethoxy)phenyl)carbamoyl)imidazo[2,1-b]thiazol-2-yl)-phenyl)cyclohexyl)acetic acid], for which the half-inhibitory concentration (IC50) against mouse DGAT1 and against human DGAT1 [2] was under 10 nM each time.

For `CC(C)c1ccc(CNC(=O)c2cn3cc(-c4ccc([C@H]5CC[C@H](CC(=O)O)CC5)cc4)sc3n2)cc1` [Compound 53, 2-((1r,4r)-4-(4-(6-((4-Isopropylbenzyl)carbamoyl)imidazo[2,1-b]thiazol-2-yl)phenyl)cyclohexyl)acetic acid], the values for the IC50 on mouse DGAT1 and on human DGAT1 [2] were under 100 nM and under 25 nM, respectively.

As for `O=C(O)C[C@H]1CC[C@H](c2ccc(-c3cn4cc(C(=O)NC5(c6cc(F)ccc6F)CC5)nc4s3)cc2)CC1` [Compound 54, 2-((1r,4r)-4-(4-(6-((1-(2,5-Difluorophenyl)cyclopropyl)carbamoyl)imidazo[2,1-b]thiazol-2-yl)phenyl)cyclohexyl)acetic acid], the half-inhibitory concentration (IC50) was under 25 nM on mouse DGAT1 and under 10 nM against human DGAT1 [2].

In the case of `COc1ccc(OC(F)(F)F)cc1CNC(=O)c1cn2cc(-c3ccc([C@H]4CC[C@H](CC(=O)O)CC4)cc3)sc2n1` [Compound 55, 2-((1r,4r)-4-(4-(6-((2-Methoxy-5-(trifluoromethoxy)benzyl)carbamoyl)imidazo[2,1-b]-thiazol-2-yl)phenyl)cyclohexyl)acetic acid], the figures for the half-inhibitory concentration (IC50) against mouse DGAT1 and against human DGAT1 [2] were under 25 nM and under 10 nM, respectively.

For `O=C(O)C[C@H]1CC[C@H](c2ccc(-c3cn4cc(C(=O)NCc5ccc(OC(F)(F)F)cc5)nc4s3)cc2)CC1` [Compound 56, 2-((1r,4r)-4-(4-(6-((4-(Trifluoromethoxy)benzyl)carbamoyl)imidazo[2,1-b]thiazol-2-yl)-phenyl)cyclohexyl)acetic acid], the concentration for half-maximal inhibition (IC50) on mouse DGAT1 is under 50 nM; against human DGAT1 [2], under 10 nM.

As for `CC(C)(C(=O)O)[C@H]1CC[C@H](c2ccc(-c3ccc4nc(C(=O)NCc5ccccc5)cn4c3)cc2)CC1` [Compound 65, 2-((1r,4r)-4-(4-(2-(Benzylcarbamoyl)imidazo[1,2-a]pyridin-6-yl)phenyl)cyclohexyl)-2-methylpropanoic acid], the concentration for half-maximal inhibition (IC50) on mouse DGAT1 is under 125 nM; against human DGAT1 [2] it was under 10 nM.

Consider `CC(C)(C(=O)O)[C@H]1CC[C@H](c2ccc(-c3ccc4nc(C(=O)NCc5ccc(OC(F)(F)F)cc5)cn4c3)cc2)CC1` [Compound 66, 2-Methyl-2-((1r,4r)-4-(4-(2-((4-(trifluoromethoxy)benzyl)carbamoyl)imidazo[1,2-a]pyridin-6-yl)phenyl)cyclohexyl)propanoic acid], for which the IC50 against mouse DGAT1 was under 50 nM; at human DGAT1 [2], under 10 nM.

Take `Cc1cccc(Cl)c1CNC(=O)c1cn2cc(-c3ccc(C4CCC(C(C)(C)C(=O)O)CC4)cc3)ccc2n1` (stereo not shown) [Compound 67, 2-((1s,4s)-4-(4-(2-((2-Chloro-6-methylbenzyl)carbamoyl)imidazo[1,2-a]pyridin-6-yl)phenyl)cyclohexyl)-2-methylpropanoic acid]: the 50% inhibitory concentration (IC50) at mouse DGAT1 is under 50 nM; on human DGAT1 [2] it was under 25 nM.

Broadly, the IC50 is the concentration that inhibits the measured activity by half. A higher IC50 goes with weaker potency.
